Values of other authors in patent publication EP0374097A2, “Use of peptide isosteres as retroviral protease inhibitors” (CIBA-GEIGY AG, priority 1988, dated 1990).

Tested on: gag-Protease von HIV
Conditions: stated as known

Pepstatin
Hemmung der gag-Protease von HIV: gehemmt
